# Where “and” joins values, the source holds several entries; their conditions need not be identical. Equal values may be shown once.
# Columns and labels:
# AC [1] = biological target: T1, AC (Homo sapiens, UniProt Q13510); assay: hAC LC/MS-based activity assay in SH-SY5Y cells; format: cell-based; parameters: host or cells: SH-SY5Y
# T1 sequence (Q13510 22-395): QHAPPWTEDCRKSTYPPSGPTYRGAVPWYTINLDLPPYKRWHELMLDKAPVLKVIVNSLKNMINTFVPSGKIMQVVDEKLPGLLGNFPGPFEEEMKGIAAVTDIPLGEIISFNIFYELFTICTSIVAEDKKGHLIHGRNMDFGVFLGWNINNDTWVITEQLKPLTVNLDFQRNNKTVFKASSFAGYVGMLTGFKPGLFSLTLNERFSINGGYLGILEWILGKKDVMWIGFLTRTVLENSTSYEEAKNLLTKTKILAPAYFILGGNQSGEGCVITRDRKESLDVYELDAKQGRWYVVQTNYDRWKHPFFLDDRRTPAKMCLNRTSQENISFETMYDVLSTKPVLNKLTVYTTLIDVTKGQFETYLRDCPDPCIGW
# Description: SH-SY5Y cells were purchased from Sigma Aldrich (Italy) and cultured in Dulbecco’s modified Eagle’s medium (DMEM) containing 10% fetal bovine serum at 37 °C and 5% CO2. Drugs were dissolved in DMSO (10 mM) and diluted in the cell culture medium with reduced serum (1%) for cell treatments.
# hAC activity measurement was performed as previously described.[36],[37] Total lysates from cells were diluted in assay buffer (100 mM sodium phosphate, 0.1% Nonidet P-40, 150 mM NaCl, 3 mM DTT, 100 mM sodium citrate, pH 4.5). Reactions were started by the addition of 50 μM N-lauroyl ceramide (Nu-Chek Prep, Elysian, MN) and carried out for 1 h at 37 °C. Reactions were stopped by addition of a mixture of CHCl3/MeOH (2:1) containing 1 nmol of 11-lauroleic acid (Nu-Chek Prep). The organic phases were collected, dried under nitrogen, and analyzed by UPLC/MS (ACQUITY, Waters) in the negative-ion mode monitoring the reaction product (lauric acid, m/z: 199) using 11-lauroleic acid as internal standard. […] The [M–H]^− ion was monitored in the selected-ion monitoring mode (m/z values: lauric acid 199, 11-lauroleic acid 197.35). […]
# AC [2] = biological target: T1, AC; assay: Kinetic studies on hAC-enriched lysates (Michaelis–Menten analysis, ki/KI); format: biochemical; parameters: expressed in transfected cells; settings: time-dependent inhibition of hAC
# Description: Assay conditions for the kinetic studies were the same as those described for the fluorogenic hAC assay. Enzyme-enriched lysate (2 μg) was incubated with the following concentrations of substrate Rbm14–12: 0.25, 0.5, 1, 2.5, 5, 10, 12.5, and 15 μM. Compound 22m was used at final concentrations of 100 and 400 nM. Initial velocities (V0) were determined and automatically fitted to the Michaelis–Menten equation to obtain the kinetic parameters (KM and Vmax). The graph is representative of two independent experiments, each performed in three technical replicates. Graphs and data analysis were performed using GraphPad Prism 5 software (GraphPad Software Inc., CA, USA).
# hAC activity was measured as a function of reaction time in the presence of different concentrations of 22m. The apparent inactivation rate constant of hAC (kobs) was analyzed by nonlinear square fitting each data set to the pseudo-first-order rate equation Y = vi(1 – exp(−kobst))/kobs. Replotting of calculated kobs vs [22m] was made, and the kinetic parameter ki/KI was calculated by nonlinear square fitting data to the equation Y = kiI/(KI + I). The graphs are representative of two independent experiments, each performed in two technical replicates.
# GCase = biological target: T2, GCase (Homo sapiens, UniProt P04062); assay: In vitro hGCase assay; format: biochemical; settings: 1 and 10 μM
# T2 construct: 5 nM purified human full-length GCase enzyme; made in house
# T2 sequence (P04062 40-536): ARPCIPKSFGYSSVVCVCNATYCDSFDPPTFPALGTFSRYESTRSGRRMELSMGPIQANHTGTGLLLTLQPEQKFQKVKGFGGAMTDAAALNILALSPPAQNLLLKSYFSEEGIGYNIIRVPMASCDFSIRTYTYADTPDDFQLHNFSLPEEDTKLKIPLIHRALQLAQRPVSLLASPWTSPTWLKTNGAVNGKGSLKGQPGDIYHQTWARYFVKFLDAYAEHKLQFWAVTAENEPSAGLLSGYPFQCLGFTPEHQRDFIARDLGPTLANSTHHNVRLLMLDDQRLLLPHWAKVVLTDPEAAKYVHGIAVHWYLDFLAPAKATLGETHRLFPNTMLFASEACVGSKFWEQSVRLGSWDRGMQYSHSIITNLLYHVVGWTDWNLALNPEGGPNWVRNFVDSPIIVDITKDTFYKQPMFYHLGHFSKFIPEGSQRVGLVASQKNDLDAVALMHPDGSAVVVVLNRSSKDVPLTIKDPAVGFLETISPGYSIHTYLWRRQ
# Description: hGCase activity measurement was conducted using the fluorogenic substrate 4-methylumbelliferyl-β-D-[…] hydrate (4-MUG, Merck) at 1 mM and 5 nM purified human full-length GCase enzyme and 50 nM of its natural activator SapC (both GCase and SapC were purified in house) in a buffer containing 50 mM citric acid, 174 mM K2HPO4, 15 μM phosphatidylserine, and 0.32 mM Triton X-100 at pH 4.7 in a final volume of 50 μL. The reaction mixtures were incubated for 15 min at rt and stopped by the addition of 150 μL of 1 M glycine at pH 12.5. The cleavage of 4-MUG was monitored by a plate reader at excitation/emission wavelengths of 365/440 nm. The average hGCase activity was calculated from two independent experiments, each performed in two technical replicates.
smiles,measurement,setting,value
"CC(C)CNC(=O)n1c(=O)oc2cc(C3CCN(C)CC3)ccc21 [22m, N-Isobutyl-6-(1-methyl-4-piperidyl)-2-oxo-1,3-benzoxazole-3-carboxamide]",AC activity in SH-SY5Y cells,"AC [1]; 1, 2.5, 5, 10 μM, 30 min, 1 h, 3 h, 6 h",concentration- (Figure 5A) and time-dependent reduction of AC activity
same,persistence of effect on AC activity inhibition and SphL,"AC [1]; SH-SY5Y cells, 10 μM",persisted for up to 6 h
same,ki,AC [2],0.15 min^–1
same,ki/KI,AC [2],0.02 μM^–1 min^–1 and 0.02±0.001 μM^–1 min^–1
same,effect on activity of GCase,GCase,no effect

# Source: PMC7997574, “Lead Optimization of Benzoxazolone Carboxamides as Orally Bioavailable and CNS Penetrant Acid Ceramidase Inhibitors” (Journal of Medicinal Chemistry, 2020)
